For assay [1], the system named is C. fascicularis suspension culture. The assay can be described thus: Differential induction of EGCG in Crassula fascicularis suspension culture (HPLC). It counts as cell-based. The conditions noted are these: B49 medium, treated on day 7 following subculture. The procedure:
Differential induction of catechins in the C. fascicularis suspension culture was performed in 500 mL conical flasks containing 190 mL of either growth medium B105 (modified Gamborg's B5 medium containing 2,4-D (1 mg/L), kinetin (0.1 mg/L), coconut water (100 mL/L), glutamine (10 mM), and 3% sucrose) or a secondary metabolite production medium B49 (Gamborg's B5, 5% sucrose, no hormones), inoculated with 70 mL of 14 day old suspension culture. Cultures were grown for 14 days before harvest and processing. Further cultures grown on production medium B49 were treated using one of each of the following protocols:
(4) A 40 mL aliquot of a day 0 suspension growing on B105 medium was transferred to a 100 mL flask. On day 3, a sterile solution of 5-azacytidine (5-AC) in water was added for a final concentration of 3×10^−5 M, and the resultant mixture was incubated for 11 days. At this point the 40 mL 5-AC-treated culture was subcultured twice before inoculating 190 mL B49 production medium in a 500 mL flask with 70 mL of day 14 suspension. The culture was then treated further according to protocol (2). […]
Lyophilized biomass from 100 mL plant cell culture was extracted three times with 10 mL of boiling aqueous 0.2 M NaH2PO4 solution (total 30 mL). The combined, cooled, extracts were extracted with EtOAc (2×30 mL). The combined EtOAc extracts were then dried under a stream of nitrogen. The samples were dissolved in 50% aqueous acetonitrile at a concentration of 1.0 mg/mL; a 0.1 mL aliquot was transferred into a 0.25 mL glass insert to a 2 mL HPLC vial. The extraction procedure is scalable according to the initial volume of the plant-cell culture used to generate the biomass.
HPLC analyses of compounds in plant cell culture extracts were performed in two systems. System 1 (S1) utilized a Rainin Dynamax SD-200 pumping system, a Varian Dynamax PDA-2 diode array detector, with a Waters XTerra RP 18 (5 μm, 3.0×150 mm) column. The mobile phase was composed from 0.1% acetic acid in H2O (solvent A) and 0.1% acetic acid in acetonitrile (solvent B), at a flow rate of 0.75 mL/min: after maintaining initial conditions (A:B, 95:5) for one minute post-injection, gradient elution was accomplished in a linear fashion over 30 min (to A:B, 40:60). A total of 10 μL of each sample was injected onto the column and eluates were analyzed at a wavelength of 275 nm. System 2 (S2) utilized API-electrospray-LC-MS: a Hewlett Packard series HP1100 with a Waters Xterra RP18 (3.5 μm, 2.1×100 mm) column was used as the inlet for a Micromass Platform-LC, in the positive-ion mode. […] Compounds of interest were detected at 254 nm and as single-charged species via selected-ion monitoring in the mass spectrometer. […]

Assay [2] has as its system C. barkleyi suspension culture. The assay can be described thus: Differential induction of catechin accumulation in Crassula barkleyi suspension culture. It counts as cell-based. Particulars: B49 medium, treated seven days after inoculation, sampled for 17 days. Here is the method:
Differential induction of catechin derivatives in the C. barkleyi suspension culture was performed in 250 mL conical flasks containing 100 mL of a secondary metabolite production medium B49 (Gamborg's B5, with 5% sucrose, and no hormones), inoculated with 16 mL of 14 day old suspension culture. The cultures were incubated under low light conditions (approximately 30 lux) at 25° C. for seven days after inoculation. Cultures were then treated using one of each of the following protocols (untreated cultures were also maintained as controls):
(2) Autoclaved aqueous 2,4-D (1 mg/L final concentration) was added;
(4) Filter-sterilized aqueous DL-phenylalanine (200 mg/L) was added;
(6) Filter-sterilized aqueous zeatin (10 μM) was added;
(7) Filter-sterilized aqueous 1-aminocyclopropane-1-carboxylic acid (10 mg/L final concentration) was added;
(8) Filter-sterilized 24-epibrassinolide (1 mg/L final concentration) was added;
(9) Incubation at a temperature of 16° C.; or (10) High light regime (approximately 160 lux).
Ten milliliter culture samples were taken at regular intervals for 17 days following the day of subculture to B49 medium. All culture samples were centrifuged for five minutes at 4000 rpm, and the cell residue was freeze-dried. Extraction, sample preparation, and HPLC analysis were performed as described in Example 1.

This is an account of results in patent US20030175678A1, “Methods for identifying genes regulating desired cell phenotypes” (priority 2001, published 2003).

On to `CC/C=C\CC1C(=O)CCC1CC(=O)OC` (centres unmarked) [methyl jasmonate], for which the “EGCG (mg/gdwt) two days after treatment” value in assay [1] worked out at 67 mg/gdwt. Moreover, in assay [2], the “catechin biosynthesis and EGCG accumulation” value is “induced catechin biosynthesis and EGCG accumulation”.
